The assay concerns P388. Briefly: Cytotoxicity against mouse P388 cells. Type of assay: functional, cell-based.

Values after ≈ are worked out from the molar mass of the structure shown. Active and inactive are the calls of the source. No cut-off for these calls is given here.

As for `CC[C@@]1(C)CCC[C@]2(C)[C@H]3C[C@H](O)[C@]4(C)[C@H]5C=CC(=O)C5=CC[C@H]4[C@]3(C)CC[C@@H]12` [PHYLLOFENONE B], 5 µg/mL (≈ 12.6 µM) corresponded to half-maximal inhibition (IC50).

As for `CC[C@@]1(C)CCC[C@]2(C)[C@H]3CC(=O)[C@]4(C)[C@H]5C(=O)O[C@@H](C)[C@@H]5[C@@H](O)C[C@H]4[C@]3(C)CC[C@@H]12`, the outcome was inactive.

For the compound `CC[C@@]1(C)CCC[C@]2(C)[C@H]3C[C@H](O)[C@]4(C)C5=C(CC[C@H]4[C@]3(C)CC[C@@H]12)[C@H](C)OC5=O`, the outcome was inactive.

By IC50 is commonly meant the midpoint of a concentration-inhibition curve.
